# Experimental data from patent US7008786B2, “Microorganism producing L-lysine and processes for producing L-lysine using the same” (priority 2000, dated 2006).
# How the values were obtained:
# [1] = system: Corynebacterium glutamicum CH77; assay: Resistance to monensin: growth on minimal agar plate medium containing monensin; type: cell-based; settings: Monensin 7,000 μg/l, 4 days, parent strain CH77
# Description: (§1) The parent CH77 strain and the mutant CJM107 strain were tested for their resistance to monensin by the following method. Cells were grown in a Luria-Bertani (LB) liquid medium for 16 hours. Then, the cells were washed twice with a sterilized physiological saline and then, appropriately diluted and cultivated on a minimal agar plate medium [glucose 10 g, (NH4)2SO4 2 g, urea 2 g, KH2PO4 1 g, K2HPO4 3 g, MgSO4.7H2O 0.5 g, FeSO4.7H2O 10 mg, MnSO4.7H2O 10 mg, biotin 100 μg, Thiamin.HCl 100 μg, CaCl2.2H2O 100 μg, Na2B4O7.10H2O 80 μg, (NH4)6MoO27.4H2O 40 μg, ZnSO4.7H2O 10 μg, CuSO4.7H2O 10 μg, MnCl2.4H2O 10 μg, FeCl3.6H2O 1 mg, agar 20 g, if necessary L-leucine 0.1 g, if necessary L-threonine 0.1 g, if necessary L-methionine 0.1 g, per distilled water of 11 (pH 7.0)] containing monensin of 7,000 μg/1 for 4 days.
# [2] = system: Corynebacterium glutamicum CJM107; assay: as above; type: cell-based; settings: Monensin 7,000 μg/l, 4 days, mutant strain CJM107
# Description: as §1
smiles,measurement,setting,value
"CC[C@@]1([C@@H]2O[C@@H]([C@H]3O[C@@](O)(CO)[C@H](C)C[C@@H]3C)C[C@@H]2C)CC[C@H]([C@]2(C)CC[C@]3(C[C@H](O)[C@@H](C)[C@@H]([C@@H](C)[C@@H](OC)[C@H](C)C(=O)O)O3)O2)O1 [Monensin, monensin]",Growth of CH77 in the presence of monensin,[1],−
same,Growth of CJM107 in the presence of monensin,[2],+++
